# Reference: US10851112B2, “Anti-HCMV virus compound” (MEDSHINE DISCOVERY INC., priority 2016, dated 2020)
# pEC50: −log10 of the molar value.
# System: US3-6-EGFP-HCMV-AD169 viruses
# Assay: Fluorescence decay assay against human cytomegalovirus
# Assay type: cell-based, human cytomegalovirus (HCMV)
# Conditions: Human betaherpesvirus 5, AD169, MRC5, 240 h
# Protocol: Fluorescence Decay Assay Against Human Cytomegalovirus
# The antiviral activity of the compound against human cytomegalovirus (HCMV) was evaluated by determining the half maximal effective concentration (EC50) of the compound. The HCMV used in this assay was inserted with enhanced green fluorescent protein (EGFP) by gene recombination, so the viral replication in cells could be reflected by the expression level of GFP. The inhibitory activity of the compound on HCMV GFP expression was evaluated by determining the fluorescence intensity in the wells of different concentrations of the compound using a high content cell analysis platform Acumen eX3.
# Fluorescence Decay Assay Against HCMV
# MRC5 cells were inoculated into a black 96-well cell culture plate at a density of 20,000 cells per well. The plate was incubated overnight in a 37° C., 5% CO2 incubator. US3-6-EGFP-HCMV-AD169 viruses were added to the cell culture well at a certain MOI (0.003-0.1) and the plate was incubated for 3 hours in a 37° C., 5% CO2 incubator. After adsorption of viruses, the medium containing viruses was aspirated and 200 μL of cell culture medium containing different concentrations of the compound (4-fold dilution, 6 test concentrations) was added. The final concentration of DMSO in the medium was 1%. Virus control wells (with DMSO added, but no compound was added) and inhibition control wells (with a high concentration of control compound added) were set. The cell plate was incubated for 10 days in a 37° C., 5% CO2 incubator and the liquid was renewed on the 4th day and 7th day. After 10 days of culture, the fluorescence intensity was determined using a high content cell analysis platform Acumen eX3 (TTP LabTech). The original data was used for calculating the antiviral activity of the compound.
# The inhibition % was imported into GraphPad Prism software for data processing to give a corresponding dose-response curve for the compound and the EC50 of the test compound was obtained.
row,Compound,pEC50
1,"COc1cccc(N2CCN(C3=Nc4c(csc4F)[C@@H](CC(=O)O)N3c3cc(C(F)(F)F)ccc3OC)C[C@H]2C)c1 (single isomer, unassigned) [WX-131]",7.26
2,"COc1cc(N2CCN(C3=Nc4c(csc4F)[C@@H](CC(=O)O)N3c3cc(C(F)(F)F)ccc3OC)C[C@H]2C)ccn1 (single isomer, unassigned) [WX-148]",7.92
3,"COc1cccc(N2CCN(C3=Nc4cc(Cl)sc4[C@H](CC(=O)O)N3c3cc(C(F)(F)F)ccc3OC)CC2)c1 (single isomer, unassigned) [WX-107]",8.40
4,"COc1ccc(C(F)(F)F)cc1N1C(N2CCN(c3ccc(F)cc3)CC2)=Nc2c(csc2F)[C@H]1CC(=O)O (single isomer, unassigned) [WX-113]",6.97
5,"COc1cccc(N2CCN(C3=Nc4cscc4[C@H](CC(=O)O)N3c3cc(C(F)(F)F)ccc3OC)C[C@H]2C)c1 (single isomer, unassigned) [WX-204]",9.76
6,"COc1cccc(N2CCN(C3=Nc4c(csc4F)[C@H](CC(=O)O)N3c3cc(C(F)(F)F)ccc3OC)CC2)c1 (single isomer, unassigned) [WX-076]",9.00
7,"COc1ccc(C(F)(F)F)cc1N1C(N2CCN(c3ccc(F)cc3)CC2)=Nc2c(csc2F)[C@@H]1CC(=O)O (single isomer, unassigned) [WX-112]",9.00
8,"COc1ccc(C(F)(F)F)cc1N1C(N2CCC(F)(c3ccc(F)cc3)CC2)=Nc2ccsc2[C@@H]1CC(=O)O (single isomer, unassigned) [WX-090]",7.10
9,"COc1cccc(N2CCN(C3=Nc4c(csc4F)[C@@H](CC(=O)O)N3c3cc(C(F)(F)F)ccc3OC)CC2)c1 (single isomer, unassigned) [WX-075]",6.53
10,"COc1ccc(C(F)(F)F)cc1N1C(N2CCC(F)(c3ccc(F)cc3)CC2)=Nc2c(csc2F)[C@H]1CC(=O)O (single isomer, unassigned) [WX-100]",7.14
11,"CC[C@@H]1CN(C2=Nc3ccsc3[C@H](CC(=O)O)N2c2cc(C(F)(F)F)ccc2OC)CCN1c1cccc(OC)c1 (single isomer, unassigned) [WX-170]",9.58
12,"COc1cc(N2CCN(C3=Nc4cc(C)sc4[C@@H](CC(=O)O)N3c3cc(C(F)(F)F)ccc3OC)C[C@H]2C)ccn1 (single isomer, unassigned) [WX-174]",< 8.00
13,"COc1cccc(N2CCN(C3=Nc4cscc4[C@@H](CC(=O)O)N3c3cc(C(F)(F)F)ccc3OC)C[C@H]2C)c1 (single isomer, unassigned) [WX-203]",< 8.00
14,"COc1cc(N2CCN(C3=Nc4cc(C)sc4[C@H](CC(=O)O)N3c3cc(C(F)(F)F)ccc3OC)C[C@H]2C)ccn1 (single isomer, unassigned) [WX-173]",9.07
15,"COc1cccc(N2CCN(C3=Nc4ccsc4[C@H](CC(=O)O)N3c3cc(C(F)(F)F)ccc3OC)C[C@H]2CF)c1 (single isomer, unassigned) [WX-172]",10.00
16,"COc1cccc(N2CCN(C3=Nc4cc(Cl)sc4[C@@H](CC(=O)O)N3c3cc(C(F)(F)F)ccc3OC)CC2)c1 (single isomer, unassigned) [WX-106]",< 6.00
17,"COc1cc(N2[C@H](C)CN(C3=Nc4cscc4[C@@H](CC(=O)O)N3c3cc(C(F)(F)F)ccc3OC)C[C@@H]2C)ccn1 (single isomer, unassigned) [WX-199]",< 8.00
18,"CC[C@@H]1CN(C2=Nc3ccsc3[C@@H](CC(=O)O)N2c2cc(C(F)(F)F)ccc2OC)CCN1c1cccc(OC)c1 (single isomer, unassigned) [WX-169]",< 6.27
19,"COc1ccnc(N2CCN(C3=Nc4ccsc4[C@@H](CC(=O)O)N3c3cc(C(F)(F)F)ccc3OC)C[C@H]2C)c1 (single isomer, unassigned) [WX-140]",6.84
20,"COc1cc(N2[C@H](C)CN(C3=Nc4ccsc4[C@H](CC(=O)O)N3c3cc(C(F)(F)F)ccc3OC)C[C@H]2C)ccn1 (single isomer, unassigned) [WX-196]",8.72
21,"COc1cc(N2CCN(C3=Nc4ccsc4[C@@H](CC(=O)O)N3c3cc(C(F)(F)F)ccc3OC)CC2)ccn1 (single isomer, unassigned) [WX-108]",6.47
22,"COc1ccnc(N2CCN(C3=Nc4c(csc4F)[C@@H](CC(=O)O)N3c3cc(C(F)(F)F)ccc3OC)C[C@H]2C)c1 (single isomer, unassigned) [WX-146]",6.45

row,Compound,pEC50
1,"COc1cccc(N2CCN(C3=Nc4ccsc4[C@@H](CC(=O)O)N3c3cc(C(F)(F)F)ccc3OC)C[C@H]2C)c1 (single isomer, unassigned) [WX-135]",6.03
2,"COc1cc(N2[C@H](C)CN(C3=Nc4ccsc4[C@@H](CC(=O)O)N3c3cc(C(F)(F)F)ccc3OC)C[C@H]2C)ccn1 (single isomer, unassigned) [WX-197]",< 8.00
3,"COc1cccc(N2CCN(C3=Nc4ccsc4[C@@H](CC(=O)O)N3c3cc(C(F)(F)F)ccc3OC)C[C@H]2CF)c1 (single isomer, unassigned) [WX-171]",< 8.00
4,"COc1ccnc(N2CCN(C3=Nc4c(csc4F)[C@H](CC(=O)O)N3c3cc(C(F)(F)F)ccc3OC)C[C@H]2C)n1 (single isomer, unassigned) [WX-129]",7.85
5,"COc1cncc(N2CCN(C3=Nc4ccsc4[C@H](CC(=O)O)N3c3cc(C(F)(F)F)ccc3OC)C[C@H]2C)c1 (single isomer, unassigned) [WX-137]",7.51
6,"COc1cc(N2CCN(C3=Nc4c(csc4F)[C@H](CC(=O)O)N3c3cc(C(F)(F)F)ccc3OC)CC2)ccn1 (single isomer, unassigned) [WX-097]",9.00
7,"COc1cc(N2CCN(C3=Nc4c(csc4F)[C@@H](CC(=O)O)N3c3cc(C(F)(F)F)ccc3OC)C[C@H]2C)ncn1 (single isomer, unassigned) [WX-150]",7.70
8,"COc1cc(N2[C@H](C)CN(C3=Nc4ccsc4[C@@H](CC(=O)O)N3c3cc(C(F)(F)F)ccc3OC)C[C@@H]2C)ccn1 (single isomer, unassigned) [WX-160]",7.35
9,"COc1cc(N2CCN(C3=Nc4c(csc4F)[C@@H](CC(=O)O)N3c3cc(C(F)(F)F)ccc3OC)CC2)ccn1 (single isomer, unassigned) [WX-098]",7.51
10,"COc1ccc(C(F)(F)F)cc1N1C(N2CCC(F)(c3ccc(F)cc3)CC2)=Nc2c(csc2F)[C@@H]1CC(=O)O (single isomer, unassigned) [WX-099]",7.62
11,"COc1cncc(N2CCN(C3=Nc4c(csc4F)[C@@H](CC(=O)O)N3c3cc(C(F)(F)F)ccc3OC)C[C@H]2C)c1 (single isomer, unassigned) [WX-134]",< 6.00
12,"COc1cncc(N2CCN(C3=Nc4c(csc4F)[C@H](CC(=O)O)N3c3cc(C(F)(F)F)ccc3OC)C[C@H]2C)c1 (single isomer, unassigned) [WX-133]",7.77
13,"COc1cc(N2CCN(C3=Nc4ccsc4[C@H](CC(=O)O)N3c3cc(C(F)(F)F)ccc3OC)C[C@H]2C)ccc1F (single isomer, unassigned) [WX-201]",9.28
14,"COc1cc(N2CCN(C3=Nc4ccsc4[C@@H](CC(=O)O)N3c3cc(C(F)(F)F)ccc3OC)C[C@H]2C)ncn1 (single isomer, unassigned) [WX-144]",6.58
15,"COc1cccc(N2CCN(C3=Nc4ccsc4[C@@H](CC(=O)O)N3c3cc(C(F)(F)F)ccc3OC)CC2)c1 (single isomer, unassigned) [WX-087]",< 6.00
16,"COc1ccnc(N2CCN(C3=Nc4c(csc4F)[C@@H](CC(=O)O)N3c3cc(C(F)(F)F)ccc3OC)C[C@H]2C)n1 (single isomer, unassigned) [WX-130]",< 7.00
17,"COc1cc(N2CCN(C3=Nc4ccsc4[C@@H](CC(=O)O)N3c3cc(C(F)(F)F)ccc3OC)C[C@H]2C)ccn1 (single isomer, unassigned) [WX-142]",7.25
18,"COc1cc(N2CCN(C3=Nc4ccsc4[C@@H](CC(=O)O)N3c3cc(C(F)(F)F)ccc3OC)C[C@H]2C)ccc1F (single isomer, unassigned) [WX-200]",< 8.00
19,"COc1ccc(C(F)(F)F)cc1N1C(N2CCC(F)(c3ccc(F)cc3)CC2)=Nc2ccsc2[C@H]1CC(=O)O (single isomer, unassigned) [WX-089]",< 6.00
20,"COc1cc(N2[C@H](C)CN(C3=Nc4cscc4[C@H](CC(=O)O)N3c3cc(C(F)(F)F)ccc3OC)C[C@@H]2C)ccn1 (single isomer, unassigned) [WX-198]",9.15
21,"COc1cncc(N2CCN(C3=Nc4ccsc4[C@@H](CC(=O)O)N3c3cc(C(F)(F)F)ccc3OC)C[C@H]2C)c1 (single isomer, unassigned) [WX-138]",< 6.00
